The target of experiment [1] is T1, IRAK3 (Homo sapiens, UniProt Q9Y616).
T1 construct: IRAK Endogenous HTRF Degradation Assay; endogenous in cells
T1 sequence (Q9Y616 1-596): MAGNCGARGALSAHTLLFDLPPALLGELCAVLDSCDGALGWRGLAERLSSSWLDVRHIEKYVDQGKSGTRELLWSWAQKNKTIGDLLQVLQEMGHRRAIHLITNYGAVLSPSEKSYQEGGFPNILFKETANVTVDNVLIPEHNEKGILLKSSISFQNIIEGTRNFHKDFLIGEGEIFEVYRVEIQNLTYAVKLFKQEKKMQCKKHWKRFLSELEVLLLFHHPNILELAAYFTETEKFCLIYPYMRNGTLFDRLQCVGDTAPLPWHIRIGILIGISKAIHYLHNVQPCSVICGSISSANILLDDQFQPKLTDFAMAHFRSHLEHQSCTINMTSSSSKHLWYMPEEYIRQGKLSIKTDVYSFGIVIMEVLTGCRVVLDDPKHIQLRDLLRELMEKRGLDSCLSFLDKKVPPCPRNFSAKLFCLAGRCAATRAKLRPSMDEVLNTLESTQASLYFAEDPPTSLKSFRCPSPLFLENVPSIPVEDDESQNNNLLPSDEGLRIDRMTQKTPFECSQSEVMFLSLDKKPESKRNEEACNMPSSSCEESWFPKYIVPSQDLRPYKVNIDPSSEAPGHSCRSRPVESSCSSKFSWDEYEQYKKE
Kind of experiment: IRAK3 biochemical binding assay (LanthaScreen Eu Kinase Binding, TR-FRET). In short, it runs like this:
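TR-FRET tracer-displacement binding with 10 nM IRAK3, 2 nM Eu-anti-GST antibody and 10 nM tracer in 50 mM HEPES pH 7.4, MgCl2, 1 mM EGTA, 0.01% Brij-35. Compounds in 3-fold dilutions, 1 h at room temperature. 665/615 nm ratio gave % inhibition; IC50 and Hill slope from dose-response fit.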
In general terms: Time-resolved FRET reads energy transfer from a long-lived donor to a nearby acceptor.

Experiment [2] concerns the target T1, IRAK3. The experiment can be described thus: IRAK endogenous HTRF degradation assay (Total-IRAK3 HTRF kit). It counts as cell-based. Conditions: overnight incubation, lowest percentage of protein remaining. In short, it runs like this:
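Cells (~50 k) incubated overnight with 3-fold serial dilutions of compound, then lysed; total IRAK3 read by HTRF (665/615 nm ratio ×10,000), normalized to DMSO as 100%. EC50 from four-parameter logistic fit; Dmax = 100 − Ymin (lowest % protein remaining); DC50 = concentration giving 50% degradation.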

For orientation: IC50 means the concentration at which inhibition is half-maximal. Consider `Cc1cc(-c2cnc(Nc3cnn(C4CCN(CCN5CCN(c6ccc(C7CCC(=O)NC7=O)cc6)C[C@H]5C)CC4)c3)c3nccn23)c(F)cc1F` (stereo partly drawn) [Compound 9, 3-(4-((R)-4-(2-(4-(4-((5-(2,4-difluoro-5-methylphenyl)imdazo [1,2-a]pyrazin-8-yl)amino)-1H-pyrazol-1-yl)piperidin-1-yl)ethyl)-3-methylpiperazin-1-yl)phenyl) piperidine-2,6-dione], for which, on IRAK3 [1], the IC50 came out at 1.1 nM. The “IRAK3 HTRF degradation Ymin” value at IRAK3 [2] worked out at 14%.
For `Cc1cc(-c2cnc(Nc3cnn([C@H]4CC[C@H](CCN5CCN(c6ccc(C7CCC(=O)NC7=O)cc6)CC5)CC4)c3)c3nccn23)c(F)cc1F` (stereo partly drawn) [Compound 11, 3-(4-(4-(2-((trans)-4-(4-((5-(2,4-difluoro-5-methylphenyl)imidazo[1,2-a]pyrazin-8-yl)amino)-1H-pyrazol-1-yl)cyclohexyl)ethyl)piperazin-1-yl)phenyl)piperidine-2,6-dione] the same measures were 8.9 nM and 12%.
The like results for `Cc1cc(-c2cnc(Nc3cnn(C4CCN(CCN5[C@H](C)CN(c6ccc(C7CCC(=O)NC7=O)cc6)C[C@@H]5C)CC4)c3)c3nccn23)c(F)cc1F` (stereo partly drawn) [Compound 13, 3-(4-((3S,5R)-4-(2-(4-(4-((5-(2,4-difluoro-5-methylphenyl)imdazo [1,2-a]pyrazin-8-yl)amino)-1H-pyrazol-1-yl)piperidin-1-yl)ethyl)-3,5-dimethylpiperazin-1-yl)phenyl) piperidine-2,6-dione] were, in that order, 1.3 nM and 11%.
For `Cc1cc(-c2cnc(Nc3cnn(C4CCN(CCN5CCN(c6ccc(C7CCC(=O)NC7=O)cc6)CC5)CC4)c3)c3nccn23)c(F)cc1F` (stereo not shown) [Compound 8, 3-(4-(4-(2-(4-(4-((5-(2,4-difluoro-5-methylphenyl)imidazo[1,2-a]pyrazin-8-yl)amino)-1H-pyrazol-1-yl)piperidin-1-yl)ethyl)piperazin-1-yl)phenyl)piperidine-2,6-dione] the same measures were 1.3 nM and 9%.
The compound `Cc1cc(-c2cnc(Nc3cnn([C@H]4CCN(CCN5CCN(c6ccc(C7CCC(=O)NC7=O)cc6)C[C@H]5C)[C@@H](C)C4)c3)c3nccn23)c(F)cc1F` (stereo partly drawn) [Compound 35, 3-(4-((R)-4-(2-((2S,4S)-4-(4-((5-(2,4-difluoro-5-methylphenyl)imdazo [1,2-a]pyrazin-8-yl)amino)-1H-pyrazol-1-yl)-2-methylpiperidin-1-yl)ethyl)-3-methylpiperazin-1-yl)phenyl) piperidine-2,6-dione] registered an IC50 on IRAK3 [1] of 0.65 nM. The “IRAK3 HTRF degradation Ymin” value on IRAK3 [2] was determined as 7.6%.
For `Cc1cc(-c2cnc(Nc3cnn(C4CCN(CCN5CCN(c6ccc([C@@]7(C)CCC(=O)NC7=O)cc6)CC5)CC4)c3)c3nccn23)c(F)cc1F` [Compound 77, (R)-3-(4-(4-(2-(4-(4-((5-(2,4-difluoro-5-methylphenyl)imdazo [1,2-a]pyrazin-8-yl)amino)-1H-pyrazol-1-yl)piperidin-1-yl)ethyl)piperazin-1-yl)phenyl)-3-methylpiperidine-2,6-dione] the same measures were 2 nM and 8.3%.
The like results for `Cc1cc(-c2cnc(Nc3cnn(C4CCN(CC(=O)N5CCN(c6ccc7c(c6)C(=O)N(C6CCC(=O)NC6=O)C7)CC5)CC4)c3)c3nccn23)c(F)cc1F` (stereo not shown) [Compound 18, 3-(6-(4-(2-(4-(4-((5-(2,4-difluoro-5-methylphenyl)imidazo[1,2-a]pyrazin-8-yl)amino)-1H-pyrazol-1-yl)piperidin-1-yl)acetyl)piperazin-1-yl)-1-oxoisoindolin-2-yl)piperidine-2,6-dione] were, in that order, 0.5 nM and 20%.
For `Cc1cc(-c2cnc(Nc3cnn(C4CCN(CC(=O)N5CCN(c6ccc7c(c6)C(=O)N(C6CCC(=O)NC6=O)C7=O)CC5)CC4)c3)c3nccn23)c(F)cc1F` (stereo not shown) [Compound 6, 5-(4-(2-(4-(4-((5-(2,4-difluoro-5-methylphenyl)imidazo[1,2-a]pyrazin-8-yl)amino)-1H-pyrazol-1-yl)piperidin-1-yl)acetyl)piperazin-1-yl)-2-(2,6-dioxopiperidin-3-yl)isoindoline-1,3-dione] the same measures were 1 nM and 23%.
Consider `Cc1cc(-c2cnc(Nc3cnn(C4CCN(CC(=O)N5CCN(c6ccc7c(c6)CN(C6CCC(=O)NC6=O)C7=O)CC5)CC4)c3)c3nccn23)c(F)cc1F` (stereo not shown) [Compound 10, 3-(5-(4-(2-(4-(4-((5-(2,4-difluoro-5-methylphenyl)imidazo[1,2-a]pyrazin-8-yl)amino)-1H-pyrazol-1-yl)piperidin-1-yl)acetyl)piperazin-1-yl)-1-oxoisoindolin-2-yl)piperidine-2,6-dione], for which the IC50 at IRAK3 [1] came out at 0.51 nM. The “IRAK3 HTRF degradation Ymin” value at IRAK3 [2] amounted to 14%.
In turn, `Cc1cc(-c2cnc(Nc3cnn(C4CCN(CCN5CCN(c6ccc(C7CCC(=O)NC7=O)cc6)CC5)CC4)c3)c3nccn23)ccc1F` (stereo not shown) [Compound 33, 3-(4-(4-(2-(4-(4-((5-(4-fluoro-3-methylphenyl)imdazo [1,2-a]pyrazin-8-yl)amino)-1H-pyrazol-1-yl)piperidin-1-yl)ethyl)piperazin-1-yl)phenyl) piperidine-2,6-dione] came in with an IC50 on IRAK3 [1] of 12 nM. The “IRAK3 HTRF degradation Ymin” value on IRAK3 [2] is on record as 13%.
The like results for `Cc1cccc(-c2cnc(Nc3cnn(C4CCN(CC(=O)N5CCN(c6ccc7c(c6)CN(C6CCC(=O)NC6=O)C7=O)CC5)CC4)c3)c3nccn23)c1` (stereo not shown) [Compound 19, 3-(1-oxo-5-(4-(2-(4-(4-((5-(m-tolyl)imidazo[1,2-a]pyrazin-8-yl)amino)-1H-pyrazol-1-yl)piperidin-1-yl)acetyl)piperazin-1-yl)isoindolin-2-yl)piperidine-2,6-dione] were, in that order, 1.8 nM and 18%.
The like results for `Cc1cc(-c2cnc(Nc3cnn([C@H]4CC[C@@H](CN5CCN(c6ccc(C7CCC(=O)NC7=O)cc6)CC5)CC4)c3)c3nccn23)c(F)cc1F` (relative stereo) [Compound 71, 3-(4-(4-(((cis)-4-(4-((5-(2,4-difluoro-5-methylphenyl)imidazo[1,2-a]pyrazin-8-yl)amino)-1H-pyrazol-1-yl)cyclohexyl)methyl)piperazin-1-yl)phenyl) piperidine-2,6-dione] were, in that order, 2.8 nM and 13%.
For `Cc1cccc(-c2cnc(Nc3cnn(C4CCN(CC(=O)N5CCN(c6ccc7c(c6)C(=O)N(C6CCC(=O)NC6=O)C7=O)CC5)CC4)c3)c3nccn23)c1` (stereo not shown) [Compound 1, 2-(2,6-dioxopiperidin-3-yl)-5-(4-(2-(4-(4-((5-(m-tolyl)imidazo[1,2-a]pyrazin-8-yl)amino)-1H-pyrazol-1-yl)piperidin-1-yl)acetyl)piperazin-1-yl)isoindoline-1,3-dione] the same measures were 5 nM and 27%.
`Cc1cccc(-c2cnc(Nc3cnn(C4CCN(CCCCN5CCN(c6ccc(C7CCC(=O)NC7=O)cc6)CC5)CC4)c3)c3nccn23)c1` (stereo not shown) [Compound 3, 3-(4-(4-(4-(4-(4-((5-(m-tolyl)imidazo[1,2-a]pyrazin-8-yl)amino)-1H-pyrazol-1-yl)piperidin-1-yl)butyl)piperazin-1-yl)phenyl) piperidine-2,6-dione] displayed an IC50 at IRAK3 [1] of 1.3 nM. For the same compound, the “IRAK3 HTRF degradation Ymin” value on IRAK3 [2] came to 11%.
`O=C1CCC(c2ccc(N3CCN(CCN4CCC(n5cc(Nc6ncc(-c7cccc(F)c7)n7ccnc67)cn5)CC4)CC3)cc2)C(=O)N1` (stereo not shown) [Compound 80, 3-(4-(4-(2-(4-(4-((5-(3-fluorophenyl)imidazo [1,2-a]pyrazin-8-yl)amino)-1H-pyrazol-1-yl)piperidin-1-yl)ethyl)piperazin-1-yl)phenyl) piperidine-2,6-dione] showed an IC50 on IRAK3 [1] of 140 nM. For the same compound, the “IRAK3 HTRF degradation Ymin” value on IRAK3 [2] is given as 11%.
For `Cc1cc(-c2cnc(Nc3cnn([C@H]4CC[C@H](CCN5CCN(c6ccc([C@]7(C)CCC(=O)NC7=O)cc6)CC5)CC4)c3)c3nccn23)c(F)cc1F` [Compound 82, (S)-3-(4-(4-(2-((trans)-4-(4-((5-(2,4-difluoro-5-methylphenyl)imidazo[1,2-a]pyrazin-8-yl)amino)-1H-pyrazol-1-yl)cyclohexyl)ethyl)piperazin-1-yl)phenyl)-3-methylpiperidine-2,6-dione] the same measures were 17 nM and 40%.
For `Cc1cc(-c2cnc(Nc3cnn(C4CCN(CC(=O)N5CCN(c6ccc(C7CCC(=O)NC7=O)cc6)CC5)CC4)c3)c3nccn23)c(F)cc1F` (stereo not shown) [Compound 17, 3-(4-(4-(2-(4-(4-((5-(2,4-difluoro-5-methylphenyl)imidazo[1,2-a]pyrazin-8-yl)amino)-1H-pyrazol-1-yl)piperidin-1-yl)acetyl)piperazin-1-yl)phenyl)piperidine-2,6-dione] the same measures were 1.3 nM and 15%.

(Values after patent publication US20260216347A1, “Substituted Imidazo-Based Compounds as Ligand Directed Degraders of IRAK3” (Celgene Corporation, priority 2022, published 2026).)
